Key:
S. aureus ATCC 29213 = assay: Broth microdilution MIC assay; type: cell-based; conditions: Staphylococcus aureus, ATCC29213; broth microdilution, 16-20 hours at 37° C.; read-out: S. aureus 29213 MIC
Method: (§1) To determine the ability of test compounds to potentiate the inhibition of the growth of bacterial strains, classic cell based broth microdilution MIC assays were employed. MIC assays are performed according to CLSI methods except where otherwise noted (CLSI, 2011 and CLSI, 2009). The reference strain S. aureus ATCC 29213 and the hyper-permeable E. coli 901C were used to determine the ability of the PBP compounds to inhibit bacterial growth. Briefly, cryo-preserved bacterial cultures of clinical strains are streaked for isolation on appropriate agar medium, in this case Mueller Hinton II agar. Following incubation to allow formation of colonies these plates are sealed with parafilm and stored refrigerated for up to two weeks. For preparation of assay inocula and to ensure low variability, at least 5 colonies are picked from the agar plates with an inoculating loop and aseptically transferred to a culture tube containing 3 mL of Mueller-Hinton Broth (supplemented with divalent cations to required levels based on Manufacturers' certification). The broth culture is grown for 3-5 hours at 37° C. with shaking at 200 rpm. Meanwhile, 2-fold serial dilutions of test compounds are conducted in a 96 well plate with a final volume of 75 μL per well at 2-fold the final desired concentration. After the dilution plates are set up the growing cultures are then diluted in a cuvette containing MH II broth and the optical density is measured at 600 nm. Inocula are diluted such that 75 μL of this culture in Mueller-Hinton Broth results in a starting bacterial concentration of 5×10^5 CFU/mL when added to the dilution plates. The plates are incubated 16-20 hours at 37° C. The MIC is read visually as the lowest concentration well with no bacterial growth.

[1] = system: hyper-permeable E. coli 901C; assay: Broth microdilution MIC assay; type: cell-based; conditions: Escherichia coli, read-out: E. coli 901C MIC
Method: as §1

E. coli DH5α/pLBII = assay: Broth microdilution MIC assay, empty vector control strain; type: cell-based; conditions: Escherichia coli, read-out: E. coli DH5α/pLBII Microbiological Activity (MIC)
Method: as §1
(§2) To determine if test compounds were affected by CTX-M15, the most abundant extended spectrum β-lactamase in clinical settings worldwide, the inhibition of the growth of an engineered strain of Escherichia coli harboring CTX-M15 was tested. This strain was constructed by cloning the gene encoding CTX-M15 into the NdeI and BamHI restriction endonuclease sites of plasmid pLBII, placing the gene(s) under the control of the Lac promoter. The constructed expression plasmid for CTX-M15 was used to transform competent E. coli DH5a cells to make the engineered strain, including an empty pLBII vector control strain. The classic cell based broth microdilution MIC assay was employed as described above with the addition of control antibiotics, known to be degraded by β-lactamases (Ceftazidime, piperacillin and piperacillin+tazobactam).

[2] = system: E. coli DH5α/pLBII-CTX-M15; assay: Broth microdilution MIC assay, engineered strain producing CTX-M15; type: cell-based, Escherichia coli; conditions: Escherichia coli, read-out: E. coli DH5α/pLBII-CTX-M15 Microbiological Activity (MIC)
Method: as §1, §2

SMILES	MIC (S. aureus ATCC 29213)	MIC [1]	MIC (E. coli DH5α/pLBII)	MIC [2]
CCNC(=O)NC(C(=O)N[C@H]1Cc2cccc(C(=O)O)c2OB1O)c1csc(N)n1 (stereo partly drawn) [Example 25, (3R)-3-(2-(2-aminothiazol-4-yl)-2-(3-ethylureido)acetamido)-2-hydroxy-3,4-dihydro-2H-benzo[e][1,2]oxaborinine-8-carboxylic acid]	> 128 µg/mL	< 64 µg/mL	32 to 64 µg/mL	32 to 64 µg/mL
Nc1nc(C(NS(=O)(=O)c2cccnc2)C(=O)N[C@H]2Cc3cccc(C(=O)O)c3OB2O)cs1 (stereo partly drawn) [Example 27, (3R)-3-(2-(2-aminothiazol-4-yl)-2-(pyridine-3-sulfonamido)acetamido)-2-hydroxy-3,4-dihydro-2H-benzo[e][1,2]oxaborinine-8-carboxylic acid]	> 128 µg/mL	< 64 µg/mL	128 to 256 µg/mL	128 to 256 µg/mL
COC(=O)C(=O)NC(C(=O)N[C@H]1Cc2cccc(C(=O)O)c2OB1O)c1csc(N)n1 (stereo partly drawn) [Example 28, (3R)-3-(2-(2-aminothiazol-4-yl)-2-(2-methoxy-2-oxoacetamido)acetamido)-2-hydroxy-3,4-dihydro-2H-benzo[e][1,2]oxaborinine-8-carboxylic acid]	> 128 µg/mL	< 64 µg/mL	32 to 64 µg/mL	32 to 64 µg/mL
Nc1nc(C(NC(=O)CO)C(=O)N[C@H]2Cc3cccc(C(=O)O)c3OB2O)cs1 (stereo partly drawn) [Example 29, (3R)-3-(2-(2-aminothiazol-4-yl)-2-(2-hydroxyacetamido)acetamido)-2-hydroxy-3,4-dihydro-2H-benzo[e][1,2]oxaborinine-8-carboxylic acid]	> 128 µg/mL	< 64 µg/mL	32 to 64 µg/mL	32 to 64 µg/mL
Nc1nc(C(NC(=O)Nc2cccnc2)C(=O)N[C@H]2Cc3cccc(C(=O)O)c3OB2O)cs1 (stereo partly drawn) [Example 30, (3R)-3-(2-(2-aminothiazol-4-yl)-2-(3-(pyridin-3-yl)ureido)acetamido)-2-hydroxy-3,4-dihydro-2H-benzo[e][1,2]oxaborinine-8-carboxylic acid]	64 to 128 µg/mL	64 to 128 µg/mL	128 to 256 µg/mL	128 to 256 µg/mL
CCN1CCN(C(=O)N[C@@H](C)C(=O)N[C@H]2Cc3cccc(C(=O)O)c3OB2O)C(=O)C1=O [Example 31, (R)-3-((S)-2-(4-Ethyl-2,3-dioxopiperazine-1-carboxamido)propanamido)-2-hydroxy-3,4-dihydro-2H-benzo[e][1,2]oxaborinine-8-carboxylic acid]	> 128 µg/mL	> 128 µg/mL	> 512 µg/mL	> 512 µg/mL
CCN1CCN(C(=O)NC(C(=O)N[C@@H]2Cc3cccc(C(=O)O)c3OB2O)c2csc(N)n2)C(=O)C1=O (stereo partly drawn) [Example 33, (3S)-3-(2-(2-aminothiazol-4-yl)-2-(4-ethyl-2,3-dioxopiperazine-1-carboxamido)acetamido)-2-hydroxy-3,4-dihydro-2H-benzo[e][1,2]oxaborinine-8-carboxylic acid]	> 128 µg/mL	< 64 µg/mL	128 to 256 µg/mL	128 to 256 µg/mL
CCN1CCN(C(=O)N[C@H](CO)C(=O)N[C@H]2Cc3cccc(C(=O)O)c3OB2O)C(=O)C1=O [Example 35, (R)-3-((R)-2-(4-Ethyl-2,3-dioxopiperazine-1-carboxamido)-3-hydroxy-propanamido)-2-hydroxy-3,4-dihydro-2H-benzo[e][1,2]oxaborinine-8-carboxylic acid]	> 128 µg/mL	< 64 µg/mL	32 to 64 µg/mL	32 to 64 µg/mL
CCN1CCN(C(=O)N[C@H](Cc2c[nH]cn2)C(=O)N[C@H]2Cc3cccc(C(=O)O)c3OB2O)C(=O)C1=O [Example 40, (R)-3-((R)-2-(4-ethyl-2,3-dioxopiperazine-1-carboxamido)-3-(1H-imidazol-4-yl)propanamido)-2-hydroxy-3,4-dihydro-2H-benzo[e][1,2]oxaborinine-8-carboxylic acid]	> 128 µg/mL	64 to 128 µg/mL	128 to 256 µg/mL	128 to 256 µg/mL
COc1cc(C(=O)NC(C(=O)N[C@H]2Cc3cccc(C(=O)O)c3OB2O)c2csc(N)n2)ccn1 (stereo partly drawn) [Example 41, (3R)-3-(2-(2-aminothiazol-4-yl)-2-(2-methoxyisonicotinamido)acetamido)-2-hydroxy-3,4-dihydro-2H-benzo[e][1,2]oxaborinine-8-carboxylic acid]	64 to 128 µg/mL	< 64 µg/mL	> 512 µg/mL	> 512 µg/mL
Cn1ccc(C(=O)NC(C(=O)N[C@H]2Cc3cccc(C(=O)O)c3OB2O)c2csc(N)n2)cc1=O (stereo partly drawn) [Example 42, (3R)-3-(2-(2-aminothiazol-4-yl)-2-(1-methyl-2-oxo-1,2-dihydropyridine-4-carboxamido)acetamido)-2-hydroxy-3,4-dihydro-2H-benzo[e][1,2]oxaborinine-8-carboxylic acid]	64 to 128 µg/mL	< 64 µg/mL	32 to 64 µg/mL	32 to 64 µg/mL
COc1ccc(C(=O)NC(C(=O)N[C@H]2Cc3cccc(C(=O)O)c3OB2O)c2csc(N)n2)c(=O)[nH]1 (stereo partly drawn) [Example 46, (3R)-3-(2-(2-aminothiazol-4-yl)-2-(6-methoxy-2-oxo-1,2-dihydropyridine-3-carboxamido)acetamido)-2-hydroxy-3,4-dihydro-2H-benzo[e][1,2]oxaborinine-8-carboxylic acid]	> 128 µg/mL	< 64 µg/mL	128 to 256 µg/mL	128 to 256 µg/mL
CCCN1CCN(C(=O)NC(C(=O)N[C@H]2Cc3cccc(C(=O)O)c3OB2O)c2csc(N)n2)C(=O)C1=O (stereo partly drawn) [Example 51, (3R)-3-(2-(2-aminothiazol-4-yl)-2-(2,3-dioxo-4-propylpiperazine-1-carboxamido)acetamido)-2-hydroxy-3,4-dihydro-2H-benzo[e][1,2]oxaborinine-8-carboxylic acid]	64 to 128 µg/mL	< 64 µg/mL	8 to 16 µg/mL	8 to 16 µg/mL
Nc1nc(C(NC(=O)N2CCN(CCCF)C(=O)C2=O)C(=O)N[C@H]2Cc3cccc(C(=O)O)c3OB2O)cs1 (stereo partly drawn) [Example 54, (3R)-3-(2-(2-aminothiazol-4-yl)-2-(4-(3-fluoropropyl)-2,3-dioxopiperazine-1-carboxamido)acetamido)-2-hydroxy-3,4-dihydro-2H-benzo[e][1,2]oxaborinine-8-carboxylic acid]	64 to 128 µg/mL	< 64 µg/mL	8 to 16 µg/mL	8 to 16 µg/mL
CCCN1CCN(C(=O)NC(C(=O)N[C@H]2Cc3cccc(C(=O)O)c3OB2O)c2csc(NC(=O)OCc3ccccc3)n2)C(=O)C1=O (stereo partly drawn) [Example 56, (3R)-3-(2-(2-(((benzyloxy)carbonyl)amino)thiazol-4-yl)-2-(2,3-dioxo-4-propylpiperazine-1-carboxamido)acetamido)-2-hydroxy-3,4-dihydro-2H-benzo[e][1,2]oxaborinine-8-carboxylic acid]	64 to 128 µg/mL	< 64 µg/mL	> 512 µg/mL	> 512 µg/mL
CCN1C(=O)CN(C(=O)NC(C(=O)N[C@H]2Cc3cccc(C(=O)O)c3OB2O)c2csc(N)n2)CC1=O (stereo partly drawn) [Example 64, (3R)-3-(2-(2-aminothiazol-4-yl)-2-(4-ethyl-3,5-dioxopiperazine-1-carboxamido)acetamido)-2-hydroxy-3,4-dihydro-2H-benzo[e][1,2]oxaborinine-8-carboxylic acid]	> 128 µg/mL	< 64 µg/mL	128 to 256 µg/mL	128 to 256 µg/mL

— patent publication US11332485B2, “Penicillin-binding protein inhibitors” (priority 2017, dated 2022)
